Results: ChEMBL document CHEMBL4422656, “Kallikrein 5 inhibitors identified through structure based drug design in search for a treatment for Netherton Syndrome” (Bioorg Med Chem Lett, 2019)

Legend:
Kallikrein-1 = Kallikrein-1 (Homo sapiens, UniProt P06870); test: Inhibition of recombinant human N-terminal his-tagged KLK1 (19 to 262 residues) expressed in baculovirus infected sf9 insect cells using R110 labelled GSK3162232A as substrate measured every 30 secs intervals for 5 mins by Rhodamine110 dye-based fluorescence assay
Kallikrein-1, sequence (P06870 whole entry, the tested form may be a part): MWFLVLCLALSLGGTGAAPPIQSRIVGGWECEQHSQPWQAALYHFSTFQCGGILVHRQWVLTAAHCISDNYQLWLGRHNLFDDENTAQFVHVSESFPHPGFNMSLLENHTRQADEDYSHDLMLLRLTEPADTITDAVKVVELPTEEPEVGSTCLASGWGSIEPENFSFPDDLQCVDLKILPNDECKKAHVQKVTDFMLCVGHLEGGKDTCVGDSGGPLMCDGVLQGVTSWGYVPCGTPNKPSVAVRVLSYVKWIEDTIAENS

Homo sapiens = organism: Homo sapiens; test: Selectivity ratio of IC50 for recombinant human N-terminal his-tagged KLK1 (19 to 262 residues) to IC50 for recombinant human FLAG-tagged KLK5
Kallikrein-5 [1] = target: T1, Kallikrein-5 (Homo sapiens, UniProt Q9Y337); test: Inhibition of recombinant human FLAG-tagged KLK5 expressed in baculovirus infected sf9 insect cells using (Tos-Gly-Pro-Arg)2[R110].2TFA as substrate measured every 30 secs intervals for 5 mins by Rhodamine110 dye-based fluorescence assay
T1 sequence (Q9Y337 whole entry): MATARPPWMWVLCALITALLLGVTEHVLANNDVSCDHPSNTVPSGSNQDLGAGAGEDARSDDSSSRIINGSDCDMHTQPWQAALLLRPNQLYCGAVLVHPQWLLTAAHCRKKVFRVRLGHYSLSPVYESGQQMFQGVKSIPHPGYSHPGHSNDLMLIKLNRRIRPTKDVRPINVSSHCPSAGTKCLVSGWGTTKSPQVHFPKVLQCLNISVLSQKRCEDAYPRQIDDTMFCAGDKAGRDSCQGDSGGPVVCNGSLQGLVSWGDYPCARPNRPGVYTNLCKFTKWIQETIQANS

Kallikrein-5 [2] = target: T1, Kallikrein-5; test: Inhibition of KLK5 (unknown origin) using Boc-Val-Pro-Arg-AMC substrate incubated for 15 mins by fluorescence assay
[3] = target: T2, Kallikrein-14 (Homo sapiens) (UniProt Q9P0G3); test: Inhibition of KLK14 (unknown origin) at 100 uM using Boc-Val-Pro-Arg- AMC substrate incubated for 15 mins by fluorescence assay
T2 sequence (whole entry): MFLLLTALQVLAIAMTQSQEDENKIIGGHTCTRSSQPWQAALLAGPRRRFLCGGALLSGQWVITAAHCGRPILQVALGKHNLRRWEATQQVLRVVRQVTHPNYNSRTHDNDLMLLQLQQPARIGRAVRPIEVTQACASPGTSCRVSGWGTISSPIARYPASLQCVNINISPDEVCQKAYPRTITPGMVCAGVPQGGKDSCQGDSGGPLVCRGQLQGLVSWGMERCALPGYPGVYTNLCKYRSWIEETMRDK

[4] = Dissociation constant, pKa of phenol group of the compound by UV spectrophotometric analysis; type: physicochemical
Kallikrein-5 [5] = target: T1, Kallikrein-5; test: Inhibition of recombinant human KLK5 using S-2288 substrate
Kallikrein-7 = Kallikrein-7 (Homo sapiens, UniProt P49862); test: Inhibition of recombinant human KLK7 using S-2586 substrate
Kallikrein-7, sequence (P49862 whole entry): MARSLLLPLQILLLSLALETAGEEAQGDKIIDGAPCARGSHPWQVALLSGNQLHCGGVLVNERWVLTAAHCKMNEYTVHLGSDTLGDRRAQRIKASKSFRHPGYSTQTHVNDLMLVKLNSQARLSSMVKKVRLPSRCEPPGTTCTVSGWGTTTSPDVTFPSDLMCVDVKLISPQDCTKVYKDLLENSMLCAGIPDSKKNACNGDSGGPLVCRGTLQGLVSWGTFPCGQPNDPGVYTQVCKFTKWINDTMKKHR

SMILES | IC50 (Kallikrein-1) | IC50 (Kallikrein-5 [1]) | other results
N=C(N)c1ccc(NC(=O)N2CCCNC2=O)cc1 | 631 µM | 10 µM | Ratio IC50 (Homo sapiens): 100
Cn1c(C(=O)Nc2ccc(C(=N)N)cc2)nc2ccccc21 | 200 µM | 12.6 µM | Ratio IC50 (Homo sapiens): 10
Cc1cc(C(=N)N)ccc1NC(=O)c1ccccc1O | 5.01 µM | 12.6 µM | –
O=C1Oc2ccccc2CC1C(=O)Oc1nccc2ccccc12 (stereo unspecified) | – | – | IC50 (Kallikrein-5 [2]): 7 µM; inhibition [3]: 61%
COc1cccc(C(=O)Nc2ccc(C(=N)N)c(F)c2)c1O | 0.251 µM | 1 µM | –
N=C(N)c1ccc(NC(=O)c2ccccc2O)cc1 | 12.6 µM | 6.31 µM | pKa [4]: 6.8
COc1cccc(C(=O)Nc2ccc(C(=N)N)c(Cl)c2)c1O | 1.26 µM | 10 µM | –
N=C(N)c1ccc(NC(=O)c2ccccc2O)cc1F | 12.6 µM | 20 µM | –
CCOc1cc2c(=O)oc(-c3ccccc3OC)nc2cc1OC | – | – | IC50 (Kallikrein-5 [5]): 0.2 µM; IC50 (Kallikrein-7): 0.048 µM
N=C(N)c1ccc(NC(=O)C2CCCNC2=O)cc1 (stereo unspecified) | 501 µM | 10 µM | Ratio IC50 (Homo sapiens): 100
Cn1cccc(C(=O)Nc2ccc(C(=N)N)cc2)c1=O | 501 µM | 158 µM | –
N=C(N)c1ccc(NC(=O)c2ccccc2O)c(F)c1 | 3.16 µM | 2.51 µM | –

Second part, led by results:

IC50 (Kallikrein-1) | IC50 (Kallikrein-5 [1]) | SMILES | other results
0.126 µM | 5.01 µM | CCOc1cccc(C(=O)Nc2ccc(C(=N)N)cc2)c1O | –
0.631 µM | 2.51 µM | N=C(N)c1ccc(NC(=O)c2cccc(Cl)c2O)cc1 | pKa [4]: 5
3.16 µM | 7.94 µM | Cc1cccc(C(=O)Nc2ccc(C(=N)N)cc2)c1O | pKa [4]: 6.8
0.316 µM | 0.501 µM | COc1cccc(C(=O)Nc2ccc(C(=N)N)cc2)c1O | pKa [4]: 6.6
3.98 µM | 2.51 µM | N=C(N)c1ccc(NC(=O)c2cccc(O)c2O)cc1 | –
